From BigSolDB 2.1

O=c1[nH]cc(F)c(=O)[nH]1
solubility (mole fraction)
Settings | 283.15 K | 288.15 K | 293.15 K | 298.15 K | 303.15 K | 308.15 K | 313.15 K | 318.15 K | 323.15 K
in DMF | 0.00344 | 0.00452 | 0.00556 | 0.00658 | 0.00779 | 0.00923 | 0.0109 | 0.0127 | 0.0143
in acetic acid | 0.000413 | 0.000496 | 0.000592 | 0.000722 | 0.000891 | 0.0011 | 0.00134 | 0.0017 | 0.0022
in ethanol | 0.00202 | 0.00224 | 0.00245 | 0.00268 | 0.00301 | 0.00331 | 0.00369 | 0.00402 | 0.00451
in formic acid | 0.000481 | 0.000568 | 0.000675 | 0.000827 | 0.000988 | 0.00121 | 0.00147 | 0.00186 | 0.00238
in isobutanol | 0.000629 | 0.000731 | 0.000854 | 0.00101 | 0.0012 | 0.00143 | 0.00173 | 0.00213 | 0.00261
in isopentanol | 0.000714 | 0.000823 | 0.00095 | 0.00112 | 0.00132 | 0.00156 | 0.00188 | 0.00232 | 0.00276
in isopropanol | 0.000549 | 0.000647 | 0.000762 | 0.000908 | 0.00107 | 0.00132 | 0.00161 | 0.00195 | 0.00247
in methanol | 0.00313 | 0.00357 | 0.0041 | 0.00464 | 0.00521 | 0.0058 | 0.00643 | 0.00713 | 0.00787
in n-butanol | 0.00101 | 0.00113 | 0.00128 | 0.00147 | 0.00168 | 0.00197 | 0.00232 | 0.00269 | 0.0031
in n-butyric acid | 0.000247 | 0.000296 | 0.000364 | 0.000444 | 0.000557 | 0.000696 | 0.000877 | 0.00111 | 0.00143
in n-pentanol | 0.000791 | 0.000902 | 0.00104 | 0.0012 | 0.0014 | 0.00166 | 0.00199 | 0.00226 | 0.00286
in n-propanol | 0.00184 | 0.00213 | 0.00242 | 0.00272 | 0.00303 | 0.00338 | 0.00376 | 0.00415 | 0.00465
in propionic acid | 0.000374 | 0.000454 | 0.000536 | 0.000668 | 0.000816 | 0.00101 | 0.0013 | 0.00166 | 0.00214
in water | 0.0011 | 0.00131 | 0.00153 | 0.00175 | 0.00198 | 0.00229 | 0.00256 | 0.00298 | 0.00345
